Laboratory results as given in ChEMBL document CHEMBL4507269, “Data for DCP probe BAY-386” (2021).

Legend:
[1] = target: Proteinase-activated receptor 4 (Homo sapiens, UniProt Q96RI0); experiment: Functional cellular assay (HEK cells) (F2RL3)
[2] = target: Beta-1 adrenergic receptor (Homo sapiens) (UniProt P08588); experiment: beta1 (h) Eurofins-Cerep Cellular and Nuclear Receptor Functional Assays; conditions: Compound concentration 10.0 uM
[3] = target: Activin receptor type-2B (Homo sapiens) (UniProt Q13705); conditions: Compound concentration 1000.0 nM
[4] = target: Ankyrin repeat and protein kinase domain-containing protein 1 (Homo sapiens) (UniProt Q8NFD2); conditions: Compound concentration 1000.0 nM
[5] = target: Serine/threonine-protein kinase BRSK2 (Homo sapiens) (UniProt Q8IWQ3); conditions: Compound concentration 1000.0 nM
[6] = target: Cyclin-dependent kinase 7 (Homo sapiens) (UniProt P50613); conditions: Compound concentration 1000.0 nM
[7] = target: Dual specificity protein kinase CLK2 (Homo sapiens) (UniProt P49760); conditions: Compound concentration 1000.0 nM
[8] = system: Epidermal growth factor receptor (Homo sapiens), P00533 [UNDEFINED MUTATION]; conditions: Compound concentration 1000.0 nM
[9] = target: Receptor-type tyrosine-protein kinase FLT3 (Homo sapiens) (UniProt P36888); conditions: Compound concentration 1000.0 nM
[10] = target: Inhibitor of nuclear factor kappa-B kinase subunit epsilon (Homo sapiens) (UniProt Q14164); conditions: Compound concentration 1000.0 nM
[11] = target: Mitogen-activated protein kinase kinase kinase 3 (Homo sapiens) (UniProt Q99759); conditions: Compound concentration 1000.0 nM
[12] = target: Microtubule-associated serine/threonine-protein kinase 1 (Homo sapiens) (UniProt Q9Y2H9); conditions: Compound concentration 1000.0 nM
[13] = target: Serine/threonine-protein kinase Nek2 (Homo sapiens) (UniProt P51955); conditions: Compound concentration 1000.0 nM
[14] = target: Serine/threonine-protein kinase Nek9 (Homo sapiens) (UniProt Q8TD19); conditions: Compound concentration 1000.0 nM
[15] = target: Serine/threonine-protein kinase PAK 5 (Homo sapiens) (UniProt Q9P286); conditions: Compound concentration 1000.0 nM
[16] = target: Platelet-derived growth factor receptor beta (Homo sapiens) (UniProt P09619); conditions: Compound concentration 1000.0 nM
[17] = target: Cyclin-dependent kinase 14 (Homo sapiens) (UniProt O94921); conditions: Compound concentration 1000.0 nM
[18] = target: Phosphatidylinositol 4-phosphate 3-kinase C2 domain-containing subunit beta (Homo sapiens) (UniProt O00750); conditions: Compound concentration 1000.0 nM
[19] = system: Phosphatidylinositol 4,5-bisphosphate 3-kinase catalytic subunit alpha isoform (Homo sapiens), P42336 [H1047Y]; conditions: Compound concentration 1000.0 nM
[20] = target: Phosphatidylinositol 4,5-bisphosphate 3-kinase catalytic subunit beta isoform (Homo sapiens) (UniProt P42338); conditions: Compound concentration 1000.0 nM
[21] = target: Phosphatidylinositol 4-phosphate 5-kinase type-1 alpha (Homo sapiens) (UniProt Q99755); conditions: Compound concentration 1000.0 nM
[22] = target: cGMP-dependent protein kinase 1 (Homo sapiens) (UniProt Q13976); conditions: Compound concentration 1000.0 nM
[23] = target: Interferon-induced, double-stranded RNA-activated protein kinase (Homo sapiens) (UniProt P19525); conditions: Compound concentration 1000.0 nM
[24] = target: Serine/threonine-protein kinase Sgk3 (Homo sapiens) (UniProt Q96BR1); conditions: Compound concentration 1000.0 nM
[25] = target: Tyrosine-protein kinase SYK (Homo sapiens) (UniProt P43405); conditions: Compound concentration 1000.0 nM
[26] = target: Tyrosine-protein kinase Tec (Homo sapiens) (UniProt P42680); conditions: Compound concentration 1000.0 nM
[27] = target: Serine/threonine-protein kinase 32C (Homo sapiens) (UniProt Q86UX6); conditions: Compound concentration 1000.0 nM
[28] = target: Mu-type opioid receptor (Homo sapiens) (UniProt P35372); conditions: Compound concentration 10.0 uM
[29] = target: T1, Alpha-2A adrenergic receptor (Homo sapiens) (UniProt P08913); conditions: Compound concentration 10.0 uM
T1 sequence (whole entry): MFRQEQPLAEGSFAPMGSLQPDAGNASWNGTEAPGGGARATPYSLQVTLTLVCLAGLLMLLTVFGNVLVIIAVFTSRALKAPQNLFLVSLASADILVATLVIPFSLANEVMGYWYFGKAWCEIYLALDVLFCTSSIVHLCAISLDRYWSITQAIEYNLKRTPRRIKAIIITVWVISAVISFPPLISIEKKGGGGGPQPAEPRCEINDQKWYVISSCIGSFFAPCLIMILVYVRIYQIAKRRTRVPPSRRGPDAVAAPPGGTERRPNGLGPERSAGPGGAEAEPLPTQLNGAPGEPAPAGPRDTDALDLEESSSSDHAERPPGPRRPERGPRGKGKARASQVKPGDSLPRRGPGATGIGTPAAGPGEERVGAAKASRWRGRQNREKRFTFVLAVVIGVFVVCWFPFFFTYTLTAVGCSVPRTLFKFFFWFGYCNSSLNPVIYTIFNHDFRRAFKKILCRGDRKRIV

[30] = target: T2, Alpha-1D adrenergic receptor (Homo sapiens) (UniProt P25100); conditions: Compound concentration 10.0 uM
T2 sequence (whole entry): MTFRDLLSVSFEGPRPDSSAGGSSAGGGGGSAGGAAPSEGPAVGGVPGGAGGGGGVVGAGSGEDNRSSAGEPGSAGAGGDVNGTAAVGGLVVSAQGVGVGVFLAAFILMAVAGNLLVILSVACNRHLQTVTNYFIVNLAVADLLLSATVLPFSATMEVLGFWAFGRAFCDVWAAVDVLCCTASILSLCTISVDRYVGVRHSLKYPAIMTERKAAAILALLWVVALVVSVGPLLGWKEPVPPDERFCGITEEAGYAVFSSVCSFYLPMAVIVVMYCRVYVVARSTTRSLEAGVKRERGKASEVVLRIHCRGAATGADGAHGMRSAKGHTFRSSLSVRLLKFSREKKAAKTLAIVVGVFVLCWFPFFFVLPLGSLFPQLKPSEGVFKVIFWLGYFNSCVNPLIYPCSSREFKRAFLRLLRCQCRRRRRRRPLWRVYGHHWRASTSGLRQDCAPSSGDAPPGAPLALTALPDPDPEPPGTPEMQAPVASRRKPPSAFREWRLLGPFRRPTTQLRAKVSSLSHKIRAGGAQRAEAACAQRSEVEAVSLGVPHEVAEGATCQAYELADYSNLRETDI

Beta-1 adrenergic receptor (Homo sapiens), sequence (P08588 whole entry, looked up): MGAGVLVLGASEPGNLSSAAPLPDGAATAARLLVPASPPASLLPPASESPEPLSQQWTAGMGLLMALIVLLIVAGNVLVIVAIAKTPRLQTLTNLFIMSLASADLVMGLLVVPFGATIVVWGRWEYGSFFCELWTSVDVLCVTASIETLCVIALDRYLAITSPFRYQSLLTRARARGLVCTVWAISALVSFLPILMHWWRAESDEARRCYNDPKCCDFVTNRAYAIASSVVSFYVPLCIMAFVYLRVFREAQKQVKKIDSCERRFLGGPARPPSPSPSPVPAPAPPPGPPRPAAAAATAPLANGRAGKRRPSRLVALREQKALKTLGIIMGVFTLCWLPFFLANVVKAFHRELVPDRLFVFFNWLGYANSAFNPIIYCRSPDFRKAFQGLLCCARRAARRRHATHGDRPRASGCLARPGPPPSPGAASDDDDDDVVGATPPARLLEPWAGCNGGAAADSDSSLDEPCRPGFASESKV
Proteinase-activated receptor 4, sequence (Q96RI0 whole entry): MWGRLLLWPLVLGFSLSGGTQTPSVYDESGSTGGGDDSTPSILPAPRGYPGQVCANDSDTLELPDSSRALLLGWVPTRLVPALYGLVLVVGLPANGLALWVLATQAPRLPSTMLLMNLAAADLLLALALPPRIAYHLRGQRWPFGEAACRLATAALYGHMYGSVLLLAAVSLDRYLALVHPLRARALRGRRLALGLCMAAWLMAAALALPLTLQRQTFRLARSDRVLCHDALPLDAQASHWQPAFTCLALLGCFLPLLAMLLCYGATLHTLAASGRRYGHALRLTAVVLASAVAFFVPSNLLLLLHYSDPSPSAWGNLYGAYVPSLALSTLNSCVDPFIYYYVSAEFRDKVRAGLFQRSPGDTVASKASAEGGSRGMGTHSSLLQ
Activin receptor type-2B (Homo sapiens), sequence (Q13705 whole entry, the tested form may be a part): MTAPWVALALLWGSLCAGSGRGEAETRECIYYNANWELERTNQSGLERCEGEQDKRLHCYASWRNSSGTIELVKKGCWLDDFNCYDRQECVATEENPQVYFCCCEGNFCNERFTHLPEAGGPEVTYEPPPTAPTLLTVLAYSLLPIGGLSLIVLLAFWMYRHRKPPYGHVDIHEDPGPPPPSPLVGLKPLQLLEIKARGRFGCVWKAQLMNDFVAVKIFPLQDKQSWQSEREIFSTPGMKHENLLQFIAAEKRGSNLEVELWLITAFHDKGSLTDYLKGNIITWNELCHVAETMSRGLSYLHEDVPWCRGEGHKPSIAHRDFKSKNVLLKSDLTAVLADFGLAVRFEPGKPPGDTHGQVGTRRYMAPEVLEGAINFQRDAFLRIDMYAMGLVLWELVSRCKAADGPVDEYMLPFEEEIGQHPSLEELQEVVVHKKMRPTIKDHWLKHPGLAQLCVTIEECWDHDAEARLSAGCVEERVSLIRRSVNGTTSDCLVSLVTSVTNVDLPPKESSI
Mitogen-activated protein kinase kinase kinase 3 (Homo sapiens), sequence (Q99759 whole entry): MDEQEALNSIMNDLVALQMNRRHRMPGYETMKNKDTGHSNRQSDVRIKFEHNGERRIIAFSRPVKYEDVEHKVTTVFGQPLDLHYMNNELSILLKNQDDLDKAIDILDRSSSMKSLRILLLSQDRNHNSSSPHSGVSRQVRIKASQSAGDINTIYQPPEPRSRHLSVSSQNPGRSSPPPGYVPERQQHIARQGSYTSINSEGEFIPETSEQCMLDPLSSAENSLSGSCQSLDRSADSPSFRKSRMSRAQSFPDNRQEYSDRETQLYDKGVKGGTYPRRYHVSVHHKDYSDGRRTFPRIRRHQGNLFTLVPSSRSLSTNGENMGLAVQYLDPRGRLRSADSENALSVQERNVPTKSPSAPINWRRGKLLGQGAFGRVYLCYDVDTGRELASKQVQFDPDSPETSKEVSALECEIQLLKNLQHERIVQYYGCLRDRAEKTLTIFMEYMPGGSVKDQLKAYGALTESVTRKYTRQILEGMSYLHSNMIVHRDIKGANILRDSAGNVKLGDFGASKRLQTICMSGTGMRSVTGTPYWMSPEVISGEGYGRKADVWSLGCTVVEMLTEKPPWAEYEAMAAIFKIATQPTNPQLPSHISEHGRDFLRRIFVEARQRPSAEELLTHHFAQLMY
Dual specificity protein kinase CLK2 (Homo sapiens), sequence (P49760 whole entry, looked up): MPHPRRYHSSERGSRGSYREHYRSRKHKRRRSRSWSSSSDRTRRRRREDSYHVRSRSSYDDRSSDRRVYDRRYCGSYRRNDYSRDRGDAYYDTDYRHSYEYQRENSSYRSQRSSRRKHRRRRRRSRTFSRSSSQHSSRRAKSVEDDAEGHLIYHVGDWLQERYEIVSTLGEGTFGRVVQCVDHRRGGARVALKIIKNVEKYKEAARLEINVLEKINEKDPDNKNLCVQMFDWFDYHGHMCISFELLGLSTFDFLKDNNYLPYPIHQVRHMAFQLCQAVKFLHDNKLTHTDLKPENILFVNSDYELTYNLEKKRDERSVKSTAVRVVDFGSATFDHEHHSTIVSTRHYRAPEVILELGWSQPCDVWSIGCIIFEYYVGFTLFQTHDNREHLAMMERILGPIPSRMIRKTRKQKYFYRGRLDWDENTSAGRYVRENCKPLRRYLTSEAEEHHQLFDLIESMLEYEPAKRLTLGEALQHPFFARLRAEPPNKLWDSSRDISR
Mu-type opioid receptor (Homo sapiens), sequence (P35372 whole entry): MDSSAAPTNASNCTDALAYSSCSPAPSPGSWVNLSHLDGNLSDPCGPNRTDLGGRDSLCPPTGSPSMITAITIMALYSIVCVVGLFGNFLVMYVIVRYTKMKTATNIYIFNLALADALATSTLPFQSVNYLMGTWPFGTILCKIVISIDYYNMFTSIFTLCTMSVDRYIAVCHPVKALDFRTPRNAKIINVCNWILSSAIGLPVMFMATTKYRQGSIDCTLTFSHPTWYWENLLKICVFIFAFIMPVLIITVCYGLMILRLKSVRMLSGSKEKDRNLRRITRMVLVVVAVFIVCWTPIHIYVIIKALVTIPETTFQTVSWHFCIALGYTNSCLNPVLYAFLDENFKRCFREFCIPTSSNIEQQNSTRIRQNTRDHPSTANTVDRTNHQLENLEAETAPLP
Platelet-derived growth factor receptor beta (Homo sapiens), sequence (P09619 whole entry): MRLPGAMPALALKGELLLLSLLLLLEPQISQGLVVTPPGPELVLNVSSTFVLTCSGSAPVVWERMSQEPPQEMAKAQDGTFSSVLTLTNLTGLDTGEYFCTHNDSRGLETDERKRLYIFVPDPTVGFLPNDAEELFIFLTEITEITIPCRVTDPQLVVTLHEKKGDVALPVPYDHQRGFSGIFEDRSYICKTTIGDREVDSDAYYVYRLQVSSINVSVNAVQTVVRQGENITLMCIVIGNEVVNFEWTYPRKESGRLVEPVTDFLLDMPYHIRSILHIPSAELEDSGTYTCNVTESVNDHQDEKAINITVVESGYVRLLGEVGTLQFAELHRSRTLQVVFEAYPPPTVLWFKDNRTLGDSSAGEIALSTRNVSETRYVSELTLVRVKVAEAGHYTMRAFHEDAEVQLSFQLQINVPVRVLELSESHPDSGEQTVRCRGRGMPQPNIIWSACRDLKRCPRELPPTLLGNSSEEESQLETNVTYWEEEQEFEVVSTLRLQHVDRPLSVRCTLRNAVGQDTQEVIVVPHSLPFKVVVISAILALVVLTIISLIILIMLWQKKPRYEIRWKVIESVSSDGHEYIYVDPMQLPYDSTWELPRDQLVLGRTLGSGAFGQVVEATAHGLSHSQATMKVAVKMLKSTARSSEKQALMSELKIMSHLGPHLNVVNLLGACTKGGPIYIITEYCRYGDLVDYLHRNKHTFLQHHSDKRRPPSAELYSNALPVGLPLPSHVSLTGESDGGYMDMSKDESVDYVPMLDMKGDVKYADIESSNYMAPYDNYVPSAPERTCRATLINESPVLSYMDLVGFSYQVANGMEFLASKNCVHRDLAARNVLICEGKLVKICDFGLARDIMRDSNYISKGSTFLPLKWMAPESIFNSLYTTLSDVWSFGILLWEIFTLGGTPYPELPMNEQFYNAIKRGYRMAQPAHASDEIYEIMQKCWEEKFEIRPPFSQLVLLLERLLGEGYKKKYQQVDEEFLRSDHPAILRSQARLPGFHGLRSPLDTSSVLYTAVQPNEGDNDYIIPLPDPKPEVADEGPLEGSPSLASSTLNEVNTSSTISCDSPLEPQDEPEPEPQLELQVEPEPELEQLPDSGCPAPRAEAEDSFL
Cyclin-dependent kinase 7 (Homo sapiens), sequence (P50613 whole entry): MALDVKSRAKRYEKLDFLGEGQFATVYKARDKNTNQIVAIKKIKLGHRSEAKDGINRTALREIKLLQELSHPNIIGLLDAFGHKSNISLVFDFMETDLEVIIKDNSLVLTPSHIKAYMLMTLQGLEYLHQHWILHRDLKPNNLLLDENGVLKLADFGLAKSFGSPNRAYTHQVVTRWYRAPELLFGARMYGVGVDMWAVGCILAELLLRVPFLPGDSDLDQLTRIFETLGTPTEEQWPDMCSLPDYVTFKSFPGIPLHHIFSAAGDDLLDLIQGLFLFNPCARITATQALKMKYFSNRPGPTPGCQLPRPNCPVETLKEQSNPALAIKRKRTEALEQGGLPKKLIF
Serine/threonine-protein kinase Sgk3 (Homo sapiens), sequence (Q96BR1 whole entry): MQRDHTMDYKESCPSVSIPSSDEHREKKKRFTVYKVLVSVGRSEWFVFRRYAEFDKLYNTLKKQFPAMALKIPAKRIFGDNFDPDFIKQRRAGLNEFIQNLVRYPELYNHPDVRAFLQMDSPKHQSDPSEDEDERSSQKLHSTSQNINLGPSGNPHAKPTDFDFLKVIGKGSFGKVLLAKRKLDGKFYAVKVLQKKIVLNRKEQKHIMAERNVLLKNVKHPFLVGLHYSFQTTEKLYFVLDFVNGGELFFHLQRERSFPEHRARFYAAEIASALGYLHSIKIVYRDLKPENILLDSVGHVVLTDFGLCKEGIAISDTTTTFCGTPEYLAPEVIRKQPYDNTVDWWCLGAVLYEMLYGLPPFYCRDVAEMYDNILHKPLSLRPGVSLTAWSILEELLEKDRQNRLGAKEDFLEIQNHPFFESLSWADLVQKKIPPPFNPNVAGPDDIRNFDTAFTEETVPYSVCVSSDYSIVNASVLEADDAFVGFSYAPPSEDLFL

Row | SMILES | IC50 [1] | % Inhibition of Control Agonist Response (Mean n=2) [2] | % of Control Agonist Response (Mean n=2) [2] | residual activity [3] | residual activity [4] | residual activity [5] | residual activity [6] | residual activity [7] | residual activity [8] | residual activity [9] | residual activity [10] | residual activity [11] | residual activity [12] | residual activity [13] | residual activity [14] | residual activity [15] | residual activity [16] | residual activity [17] | residual activity [18] | residual activity [19] | further results
1 | O=C(N1CCS(=O)(=O)CC1)N1C[C@H](c2ccc(OC(F)(F)F)cc2)C[C@H](c2nc(C3CC3)no2)C1 [BAY-386] | > 10 µM (not active) | -0.2% | 3.4% | 86% | 100% | 100% | 100% | 100% | 100% | 96% | 100% | 100% | 100% | 100% | 100% | 100% | 100% | 100% | 100% | 100% | residual activity [20]: 66%; residual activity [21]: 100%; residual activity [22]: 100%; residual activity [23]: 100%; residual activity [24]: 100%; residual activity [25]: 100%; residual activity [26]: 100%; residual activity [27]: 93%; inhibition [28]: -4.38%; inhibition [29]: -0.34%; inhibition [30]: 2.45%
2 | Cc1noc([C@H]2C[C@@H](c3ccc(C(F)(F)F)cc3)CN(C(=O)N3CCS(=O)(=O)C3)C2)n1 [BAY-448] | > 5 µM (not active) | 6.8% | 0.3% | 100% | 100% | 100% | 89% | 100% | 78% | 100% | 100% | 84% | 100% | 100% | 100% | 100% | 100% | 100% | 66% | 95% | residual activity [20]: 99%; residual activity [21]: 88%; residual activity [22]: 100%; residual activity [23]: 100%; residual activity [24]: 100%; residual activity [25]: 96%; residual activity [26]: 100%; residual activity [27]: 100%; inhibition [28]: 2.23%; inhibition [29]: 6.96%; inhibition [30]: -1.84%
